Assay results taken from US12274706B2 (MEDAC GESELLSCHAFT FUER KLINISCHE SPEZIALPRAEPARATE MBH, priority 2017, dated 2025).
≈ marks a conversion by molar mass, not a printed value. Where “and” joins values, the source holds several entries; their conditions need not be identical. Equal entries are not always repeated. Where two headings read alike, the source gives them in different places.

What was measured:
[1] = Solubility of sulfasalazine, Form A meglumine salt and pharmaceutical compositions (HPLC); assay type: physicochemical
Description: The mobile phase consists of mobile phase (A): 1.13 g sodium dihydrogen phosphate and 2.5 g sodium acetate are dissolved in 1000 mL purified water. The pH is afterwards adjusted with acetic acid (100%) to 4.8. and mobile phase (B): 1 part mobile phase A is mixed with 4 parts of methanol for chromatography. The flow rate was 1.0 mL/min, injection volume 5 μL and detection wavelengths 320 nm (HP DAD series 1100). Run time is 10 min. Quantitation was performed using external standard methodology. The assay method has been validated with respect to selectivity, repeatability and linearity. Samples are prepared with dilute ammonia R3 PhEur.
The saturated solutions were filtrated using centrifuge filters (Nylon, […]) and the clear supernatants were respectively injected either directly or after dilution with dilute ammonia R3 PhEur.
The resulting solution is further diluted with phosphate buffer (pH 6.8) to 1% v/v solution prior. The resulting phosphate buffer solution is diluted with dilute ammonia R3 prior to injection.

Water vapor uptake (GVS) = assay type: physicochemical
physchem = conditions: de-ionized water, 24 °C
[2] = cited from earlier work
in vitro = conditions: human, Caco-2
[3] = tested on: binding of TNF-alpha to its receptor; conditions: 125I-TNF-alpha displacement; cited from earlier work
[4] = cited from earlier work; remark: listed apart in the source

## CNCC(O)C(O)C(O)C(O)CO.O=C(O)c1cc(N=Nc2ccc(S(=O)(=O)Nc3ccccn3)cc2)ccc1O [Form A meglumine salt, D(−)-N-methylglucamine 2-hydroxy-5-[2-[4-[(2-pyridinylamino)sulfonyl]phenyl]diazenyl]-benzoate, crystal Form A]
other
  solubility in de-ionized water at 24° C. and pH 6.6: > 54 mg/mL
[1]; FaSSIF-V2 medium, room temperature (20-25° C.), saturated solution
  Solubility (mg/mL) FaSSIF-V2: 15.3 mg/mL
[1]; water, diluted in phosphate Buffer pH 6.8
  Solubility (mg/mL) Water: 60.3 mg/mL
[1]; water, room temperature
  Solubility (mg/mL) Water: 104.8 mg/mL
Water vapor uptake (GVS); listed as 4.1
  water vapor uptake (GVS; % w/w) at 30% RH: < 0.4 % w/w
  water vapor uptake (GVS; % w/w) at 80% RH: < 0.9 % w/w
Water vapor uptake (GVS); listed as 4.2
  water vapor uptake (GVS; % w/w) at 30% RH: 0.4 % w/w
Water vapor uptake (GVS)
  water vapor uptake (GVS; % w/w) at 80% RH: 1.1 % w/w

## O=C(O)c1cc(N=Nc2ccc(S(=O)(=O)Nc3ccccn3)cc2)ccc1O [sulfasalazine, 2-hydroxy-5-[2-[4-[(2-pyridinylamino)sulfonyl]phenyl]diazenyl]-benzoic acid]
physchem
  solubility: 60 µg/mL (≈ 151 µM)
[2]; 24° C., literature value
  solubility in de-ionized water at 24° C.: 30 µg/mL and 31 µg/mL
[2]; USP classification
  solubility class according to United States Pharmacopoeia (practically insoluble): < 100 µg/mL
[2]; water
  solubility in water: less than 5 mg/100 ml
[1]; pH 5.9, thermodynamic from solid, water, room temperature, read-out: Solubility (mg/mL) Water
  solubility at 24 h: 0.06 mg/mL
[1]; pH 6.3, thermodynamic from solid, FaSSIF-V2 medium, room temperature (20-25° C.), saturated solution, read-out: Solubility (mg/mL) FaSSIF-V2
  solubility at 24 h: 0.78 mg/mL
In vitro
  Papp A→B at 180 min, 200 μg/mL: 1.16 ×10⁻⁶ cm/s
  Papp A→B at 180 min, 2000 μg/mL: 0.81 ×10⁻⁶ cm/s
  Papp B→A at 180 min, 200 μg/mL: 4.76 ×10⁻⁶ cm/s
  Papp B→A at 180 min, 2000 μg/mL: 2.79 ×10⁻⁶ cm/s
[3]
  binding of TNF-alpha to its receptor: inhibits
[4]; intravenously administered
  half-life: approximately 7.6±3.6 hours
[4]; man, oral
  median peak concentration (time): 6 h

## Nc1ccc(S(=O)(=O)Nc2ccccn2)cc1 [sulfapyridine]
[4]; metabolite formed from non-absorbed sulfasalazine by gut flora
  systemic bioavailability: about 60%

## CCNCC.O=C(O)c1cc(N=Nc2ccc(S(=O)(=O)Nc3ccccn3)cc2)ccc1O [Form A diethylamine salt, diethylamine 2-hydroxy-5-[2-[4-[(2-pyridinylamino)sulfonyl]phenyl]diazenyl]-benzoate, crystal Form A]
Water vapor uptake (GVS)
  water vapor uptake (GVS; % w/w) at 30% RH: 0.3 % w/w
  water vapor uptake (GVS; % w/w) at 80% RH: 0.5 % w/w

## C1CNCCN1.O=C(O)c1cc(N=Nc2ccc(S(=O)(=O)Nc3ccccn3)cc2)ccc1O [Form A piperazine salt, piperazine 2-hydroxy-5-[2-[4-[(2-pyridinylamino)sulfonyl]phenyl]diazenyl]-benzoate, crystal Form A]
Water vapor uptake (GVS)
  water vapor uptake (GVS; % w/w) at 30% RH: 0.4 % w/w
  water vapor uptake (GVS; % w/w) at 80% RH: 0.9 % w/w
